19 compounds from ChEMBL document CHEMBL3593181, “Design and synthesis of benzothiazole-6-sulfonamides acting as highly potent inhibitors of carbonic anhydrase isoforms I, II, IX and XII” (Bioorg Med Chem, 2015) can be followed below.

The assay addresses Carbonic anhydrase 9 (Homo sapiens, UniProt Q16790). The assay can be described thus: Inhibition of human carbonic anhydrase 9 by stopped flow CO2 hydration method.
For the compound `CSc1nn(CC(=O)Nc2nc3ccc(S(N)(=O)=O)cc3s2)c(N)c1C#N`, the Ki – broadly, a measure of affinity in units of concentration, obtained from inhibition or displacement – stood at 295 nM. This counts as sub-micromolar. Then `N#Cc1cnn(CC(=O)Nc2nc3ccc(S(N)(=O)=O)cc3s2)c1NC(=S)Nc1ccccc1`, with 2.8 nM; and `NS(=O)(=O)c1ccc2nc(NC(=O)CSc3nc(O)cc(=O)[nH]3)sc2c1`, with 282 nM. In turn, `Nn1c(COc2ccc(Cl)cc2Cl)nnc1SCC(=O)Nc1nc2ccc(S(N)(=O)=O)cc2s1` showed a Ki of 135 nM. Then `Nc1ncnc2c1cnn2CC(=O)Nc1nc2ccc(S(N)(=O)=O)cc2s1`, with 2.8 nM.

For `CS/C(=N\c1nc2ccc(S(N)(=O)=O)cc2s1)N1CCN(/C(=N/c2nc3ccc(S(N)(=O)=O)cc3s2)SC)CC1`, the Ki came to 2.3 nM. With `NS(=O)(=O)c1ccc(NCC(=O)Nc2nc3ccc(S(N)(=O)=O)cc3s2)cc1` the figure was 4.8 nM; with `CS/C(=N\c1nc2ccc(S(N)(=O)=O)cc2s1)NCCN/C(=N/c1nc2ccc(S(N)(=O)=O)cc2s1)SC`, 2.5 nM; with `CSc1nn(CC(=O)Nc2nc3ccc(S(N)(=O)=O)cc3s2)c(NC(=S)Nc2ccccc2)c1C#N`, 3.9 nM.

Compound `NS(=O)(=O)c1ccc2nc(NC(=S)N3CCN(C(=S)Nc4nc5ccc(S(N)(=O)=O)cc5s4)CC3)sc2c1` returned a Ki of 2.6 nM.

With `NS(=O)(=O)c1ccc2nc(NC(=S)NCCNC(=S)Nc3nc4ccc(S(N)(=O)=O)cc4s3)sc2c1`, affinity was put at a Ki of 2.1 nM. The compound `Cc1ccc(OCc2nnc(SCC(=O)Nc3nc4ccc(S(N)(=O)=O)cc4s3)n2N)cc1Cl` gave a Ki of 67.3 nM. Then `NS(=O)(=O)c1ccc2nc(NC(=O)Cn3ncc4c(=O)[nH]cnc43)sc2c1`, with 4.1 nM. Then `Nc1nc(SCC(=O)Nc2nc3ccc(S(N)(=O)=O)cc3s2)nc2[nH]ncc12`, with 172 nM; and `Nn1c(Cc2ccccc2)nnc1SCC(=O)Nc1nc2ccc(S(N)(=O)=O)cc2s1`, with 244 nM.

In turn, `CSc1nn(CC(=O)Nc2nc3ccc(S(N)(=O)=O)cc3s2)c2nc[nH]c(=O)c12` had a Ki of 4.3 nM. With `CSc1nn(CC(=O)Nc2nc3ccc(S(N)(=O)=O)cc3s2)c2ncnc(N)c12`, the Ki came out at 2.7 nM. With `N#Cc1cnn(CC(=O)Nc2nc3ccc(S(N)(=O)=O)cc3s2)c1N` the figure was 276 nM; with `Nc1cc(=O)[nH]c(SCC(=O)Nc2nc3ccc(S(N)(=O)=O)cc3s2)n1`, 253 nM.
